Results: a melting point compilation (Tetko et al.; mined from patent text by program, amines drawn as free bases though some values may be those of a salt)

| SMILES | melting point [°C] |
| --- | --- |
| Cc1cc(NS(=O)(=O)c2cccc(S(=O)(=O)Nc3cc(C)c(S(=O)(=O)C[N+](=O)[O-])c(C)c3)c2)cc(C)c1S(=O)(=O)C[N+](=O)[O-] | 191 to 192 |
| CC(NC(=O)OC(C)(C)C)C(=O)NC(C)C(=O)Nc1ccc2c(Cl)c(OCCBr)oc(=O)c2c1 (centres undefined) | 147 to 151 |
| CCOC(=O)C(=O)Nc1cc(C)c(C)cc1C(N)=O | 190 to 193 |
| COC(=O)CCC(C#N)(CCC(=O)OC)c1cccc(Cl)c1 | 78.5 to 80 |
| O=c1[nH]c(=O)n(Cc2ccc(OCCc3coc(-c4ccccc4)n3)cc2)[nH]1 | 224 to 230 |
| Cc1ccc2c(c1)OC(CCO)C(=O)N2 (centres undefined) | 143 to 144 |
| CCCN(C)CC(C)N1c2ccccc2Sc2ccc(C(N)=S)cc21 (racemic) | 204 |
| N=C(Nc1ccc(CCNC(=O)C(F)(F)F)cc1)c1cccs1 | 181 to 182 |
| Cc1cccc(-c2[nH]c(C(C)C)nc2-c2cccc(-c3ccc(OC(F)(F)F)cc3)c2)n1 | 120 to 122 |
| O=C(C=Cc1ccc(C(F)(F)F)cc1)N1CCc2c([nH]c3ccccc23)C1c1ccccc1 (centres undefined) | 211 |
| CCn1cc(C(=O)O)c(=O)cc1-c1cccnc1 | 209 to 210 |
| O=C(O)c1ncn2c1[C@@H]1CCN1C(=O)c1c(Br)cccc1-2 | 178 to 180 |
| CC1C(c2ccc(Cl)cc2Cl)CC(=O)N1O (centres undefined) | 140 to 144 |
| CCOC(=O)c1cnc2n(c1=O)C(C)CCC2=NNc1ccc(Cl)cc1 (centres undefined) | 177 to 178 |
| Cc1cc(Cl)ccc1NC(=O)n1nc(Oc2cccc(C(F)(F)F)c2)cc1C | 95 to 96 |
| COc1cc2ncc(CO)c(-c3ccnc(NN)c3)c2cc1OC | 217 to 220 |
| CN(Cc1ccc(OC(C)(C)C(=O)O)cc1)c1ccc(Cl)cc1 | 63 to 65 |
| COC(=O)c1cccc(NC(=O)NCC(=O)N(CC(=O)N2CCCC2)c2ccccc2C(=O)c2ccccc2)c1 | 189 to 194 |
| O=C(O)c1ccc2c(c1)CCc1ccc(Br)cc1C2=O | 218 to 219 |
| CCOC(=O)C1(O)CCSc2ccccc21 (centres undefined) | 117 to 119 |
| Cc1c(C)c2c(c(C)c1NC(=O)CC(C)(C)C)C(c1ccc(C(C)C)cc1)C1(CCCC1)O2 (centres undefined) | 209 to 210 |
| CCOC(=O)c1cnc2c(c(C)nc3cc(C)nn32)c1NC(C)CC (centres undefined) | 113 to 115 |
| CC(C)=CCCC(C)=CCCC(C)=CC=CC(C)=CC(=O)O | 78.4 |
| Cc1cc(CCCCC(=O)O)no1 | 58 to 60 |
| CNc1nc(Cl)nc2c1ncn2C1CC(O)C(CO)O1 (centres undefined) | 163 to 165 |

| SMILES | melting point [°C] |
| --- | --- |
| OC(Cn1cncn1)(c1ccc(F)cc1)C1(Cl)CC1 (centres undefined) | 121 |
| Nc1nccc(OCc2ccccc2)c1[N+](=O)[O-] | 145 to 147 |
| COc1ccc(CCNC(=O)C(=O)NCc2cccnc2)cc1OC1CCCC1 | 148 to 149 |
| COc1cccc(Oc2c(NCCOc3ncccn3)ncnc2NS(=O)(=O)c2ccc(C(C)(C)C)cc2)c1 | 148 to 149 |
| C=C1c2ccccc2CC(NO)c2ccccc21 (centres undefined) | 145 to 147 |
| CC1C[C@@H]2NC[C@@H](NC(=O)OC(C)(C)C)[C@@H]2O1 (relative stereo) | 69 to 72 |
| CCN(CC)CCNC(=O)c1cc(F)c2cc(I)ccc2n1 | 58 to 60 |
| CCCN(CCC)c1c(CC)nn2c(-c3cnc(N(C)C)cc3C)cccc12 | 98.5 to 100 |
| N#Cc1cc2c(cc1O)OCC21C(=O)N(CC2CCCO2)c2ccccc21 (centres undefined) | 218 to 221 |
| Oc1nc(O)c2c(n1)CCCS2 | > 300 |
| Cc1ccc(Cc2cnc(NCCN(Cc3ccccc3)c3ccccn3)[nH]c2=O)cn1 | 178 to 182 |
| CSCn1cc(F)c(N=CN(C)C)nc1=O | 132 to 136 |
| COc1cc(Cl)ccc1C(=O)Nc1ccc(C(=O)N2Cc3ccccc3Cc3ccccc32)cc1 | 237 to 239 |
| CC(C)(C)OC(=O)N1CCO[C@@H](c2ccc(Br)cc2)C1 | 97.2 |
| S=C(c1ccc(Br)cc1)N1CCOCC1 | 135 to 137 |
| CN(C)c1ccc(C(=O)Nc2nc(-c3ccco3)c(C(=O)C3CCOCC3)s2)cc1 | 238 to 240 |
| Cc1ccc(C(Br)C(Br)C(=O)c2ccccc2)cc1 (centres undefined) | 84 |
| Nc1cc(-c2noc(-c3cnn4c(C(F)(F)F)cc(-c5ccc(C(F)(F)F)cc5)nc34)n2)ccn1 | 277 |
| COC(=O)c1ccc(C2CNN=C2c2ccc(Cl)cc2)cc1 (centres undefined) | 155 to 159 |
| CC(C)c1ccc2nc3ccc(C(=O)NCCCCn4ccnc4)cn3c(=O)c2c1 | 165 to 167 |
| COc1cccc(CNC(=O)c2nc3scc(COCc4ccc(CO)cc4)c3c(=O)[nH]2)c1 | 156 to 157 |
| O=C(NC(=O)C(Br)CBr)Nc1ccc(Cl)c(Cl)c1 (centres undefined) | 174 to 175 |
| C[C@H]1[C@@H](O)CC(=O)N1c1ccc(C#N)c(Cl)c1 | 161 to 162 |
| Cc1ccc(NC(=O)NCc2ccc3c(c2)CN(C2CCC(=O)NC2=O)C3=O)cc1 (centres undefined) | 267 to 269 |
| CS(=O)(=O)c1ccc(-c2cnn(-c3ccc(F)cc3)c(=O)c2C2CCCCC2)cc1 | 231 to 233 |

| SMILES | melting point [°C] |
| --- | --- |
| COc1cc2c(cc1OC)CN(c1nc(N)c3cc(OC)c(OC)cc3n1)C2 | 264 to 266 |
| COc1cc(NC(=O)CCCCCN2CCN(c3ccccn3)CC2)c2nccc(C)c2c1 | 120 to 121 |
| COCCOc1ccc(C2=NCCNC2=O)cc1 | 130 to 132 |
| CN(CCCN=C(NC#N)NCCSCc1csc(NC(=N)N)n1)CCC(c1ccccc1)c1ccccn1 (centres undefined) | 110 to 112 |
| COc1ccc(OCC(O)CNCCNc2c(C)c(=O)n(C)c(=O)n2C)cc1 (centres undefined) | 115 to 117 |
| CCN(CC)C(=O)CC1CCN(Cc2cnc3cc(NC(=O)c4ccc(-c5ccc(F)cc5)cc4)c(C)cc3c2)CC1 | 197 |
| CC(C)(C)c1cc(C2=CCCCCC2)c(O)c(C(C)(C)C)c1 | 78 to 80 |
| N#Cc1cc(Br)cc2ccc(O)c(Cl)c12 | 148 to 150 |
| O=C1NC2(NC1=O)Oc1ccccc1O2 | 202 |
| CC(c1oc2ccccc2c(=O)c1-c1cccc(F)c1)n1nc(-c2ccc(N)cc2)c2c(N)ncnc21 (centres undefined) | 91 to 94 |
| CC1(C)Oc2ccc(C#N)cc2[C@@H](O)[C@@H]1Br (relative stereo) | 128 |
| Nc1ccsc1C(=O)NC/C=C\COc1cc(CN2CCCCC2)ccn1 | 138 to 140 |
| CC12CCC3C(CC(O)C4(O)CC=CCC34C)C1CC=C2Br (centres undefined) | 170 to 175 |
| Cc1c(N2CCC(C)(NC(=O)OC(C)(C)C)C2)c(F)c(N)c2c(=O)c(C(=O)O)cn(C3CC3)c12 (centres undefined) | 214 |
| CC(C)(O)C(=O)c1ccc(OCC2CO2)cc1 (centres undefined) | 54 |
| CCOC(=O)N1CCN(c2ncnc3c2cnn3Cc2ccncc2)CC1 | 123 to 124 |
| Cc1ccccc1-c1cccc(Nc2ccccc2)c1C#N | 125 to 126 |
| CCn1ncc2c3noc(-c4ccccc4C)c3cnc21 | 168 to 170 |
| CC(C)(C)c1ocnc1/C=C1\NC(=O)[C@H](Cc2ccccc2)NC1=O | 52 to 56 |
| COc1ccc(-n2nc(Sc3cccc4ccccc34)c(C)c(C#N)c2=O)cc1 | 181 to 183 |
| N#CC1CN1C(=O)NC(=O)CC1CCCCC1 (centres undefined) | 142 to 144 |
| COc1ccc(C(O)c2cc(O)ccc2OC)cc1 (centres undefined) | 62 to 68 |
| CCn1cc(C(=O)O)c(=O)c2cc(F)c(N3CCC(NC(C)=O)C3)nc21 (centres undefined) | 283 to 284 |
| O=C(CCC(O)c1ccc(CCNS(=O)(=O)c2ccc(Cl)cc2)cc1)Nc1nnn[nH]1 (centres undefined) | 194 to 196 |
| COc1cc2nc3n(c(=O)c2cc1OC)CS(=O)(=O)N3 | > 300 |

| SMILES | melting point [°C] |
| --- | --- |
| CCOC(=O)Cn1c(=O)sc2cccc(Oc3ccccc3)c21 | 96 to 99 |
| CCCCOc1c(C(=O)O)n(CC2CC2)c(=O)c2ccc(OCc3ccccc3)cc12 | 178 to 179 |
| O=C(Cn1c(=O)c2cc(Cl)ccc2n(Cc2ccc(Cl)cc2Cl)c1=O)OCCO | 167 to 168 |
| C=C(c1cn(-c2c(Cl)cc(C(F)(F)F)cc2Cl)nc1C#N)C(F)(F)C(F)(F)C(F)(F)F | 109 to 110 |
| CC(C)C1COCc2nc3c(N)nc4ccc(O)cc4c3n21 (centres undefined) | 208 to 210 |
| CCCCC1OC(=O)c2cc(NC(C)=O)c([N+](=O)[O-])cc21 (centres undefined) | 167 to 169 |
| O=c1oc(-c2ccc(OCCCC(F)(F)F)cc2)nn1CCO | 118 |
| CC(=O)c1c(F)cc2c(=O)c(C(=O)O)cn(CCF)c2c1F | 215 to 216 |
| CC1=CC(=O)CC(C)(C)C1(O)/C=C/C(C)=C\C=O (centres undefined) | 111 to 113 |
| COc1c(Nc2ncc(Cl)c(Nc3ccccc3S(=O)(=O)N(C)C)n2)ccc2c1CCC(NCC(F)F)CC2 (centres undefined) | 118 |
| O=C1OCCN1N=C1CCOc2ccccc21 | 105 to 108 |
| Cc1cc(C)c(C(=O)P(=O)(Cc2ccccc2)c2ccccc2)c(C)c1 (centres undefined) | 113 to 114 |
| COC(=O)Cc1ccc2c(c1)C(=O)c1sccc1CO2 | 80 to 81 |
| CCOC(=O)C(C)Oc1cc(F)ccc1[N+](=O)[O-] (centres undefined) | 64 to 65 |
| COc1ccc2c(c1)OCC(C(=O)O)O2 (centres undefined) | 120 to 121 |
| Nc1ncc2c(n1)-c1ccccc1C(c1ccc(Cl)c(Cl)c1)C2 (centres undefined) | 159 to 160 |
| NC(=O)c1c(Cl)c(-c2ccccc2)n2c1CN(S(=O)(=O)c1ccc(-c3ccccn3)s1)CC2 | 222 to 224 |
| CCOC(=O)C#CC(C)(C)OC(N)=O | 111 to 114 |
| CC(C)(C)OC(=O)NC(CC(=O)NCCC(=O)OCc1ccccc1)C(=O)NCCC(=O)OCc1ccccc1 (centres undefined) | 109 to 110 |
| COc1cc(F)ccc1CCN1c2nc(-c3ccncn3)cc(=O)n2CCC1(C)C | 196 to 198 |
| CNC(=O)[C@H](O)[C@@H](Sc1ccccc1N)c1ccc(OC)cc1 | 145 to 147 |
| CCOC(=O)c1cn(C)c2cnc3cc(F)c(N4CCC(O)(c5cccc(C(F)(F)F)c5)CC4)cc3c2c1=O | 262 |
| CN(C)S(=O)(=O)c1ccc(Oc2ccc(S(=O)(=O)c3ccccc3)cc2)cc1 | 99 to 100 |
| CC1(Cc2ccccc2)OC(=O)Nc2ccc(-c3cccc(Cl)c3)cc21 (centres undefined) | 187 to 188 |
